Values quoted from earlier work as cited in patent publication US20150056194A1, “MODIFIED GREEN TEA POLYPHENOLS AND METHODS THEREOF FOR TREATING LIVER DISEASE” (priority 2013, published 2015).

Key:
[1] = animals receiving tea preparations in cancer prevention studies
[2] = test system: influenza; settings: compared with EGCG

Compound | blood levels [1] | anti-influenza activity, times more effective than EGCG [2] [times]
O=C(O[C@@H]1Cc2c(O)cc(O)cc2O[C@@H]1c1cc(O)c(O)c(O)c1)c1cc(O)c(O)c(O)c1 [EGCG, (−)-Epigallocatechin-3-gallate] | lower than 0.5 μuM | –
EGCG-palmitate | – | 24
